Data from the supplement of paper PMC10307832.

Tests used:
Experiment in all cases: relative viability (nuclei count vs DMSO), 5 days (fraction); higher = more cells survive
[1] = compound: O=C(NCCCNc1nc(Nc2cccc(NC(=O)N3CCCC3)c2)ncc1I)c1cccs1 [BX 795]
Method in brief: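 For viability, nuclei in each treated well were divided by nuclei in vehicle wells and the median across plates was taken. Lung cancer cell lines in 1536-well plates were pinned with five library-drug doses (not always all listed) spaced by √10, cultured 5 days without medium change, and imaged at 4× after Hoechst staining, with plates passing only at control CV below 25% and at least one doubling.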

[2] = compound: O=C(NCCCNc1nc(Nc2cccc(NC(=O)N3CCCC3)c2)ncc1I)c1cccs1 [BX 795] + N=C(N)NC(=N)NCCc1ccccc1 [Phenformin] (partner 250 µM)
Method in brief: (§1)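 Lung cancer cell lines were pin-tool dosed in 1536-well plates on the day after seeding, with either a lone drug or a fixed anchor-drug dose plus five library-drug doses (not always all listed) in √10 steps. Nuclei were counted on 4× images after 5 days. Relative viability is the ratio of treated-well to vehicle-well nuclei counts, with each value a median of duplicate plates.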

[3] = compound: O=C(NCCCNc1nc(Nc2cccc(NC(=O)N3CCCC3)c2)ncc1I)c1cccs1 [BX 795] + COc1cc2c(Oc3ccc(NC(=O)C4(C(=O)Nc5ccc(F)cc5)CC4)cc3F)ccnc2cc1OCCCN1CCOCC1 [Foretinib] (partner 0.25 µM)
Method in brief: as §1

[4] = compound: O=C(NCCCNc1nc(Nc2cccc(NC(=O)N3CCCC3)c2)ncc1I)c1cccs1 [BX 795] + CCNC(=O)c1noc(-c2cc(C(C)C)c(O)cc2O)c1-c1ccc(CN2CCOCC2)cc1 [Luminespib] (partner 0.01 µM)
Method in brief: as §1

[5] = compound: O=C(NCCCNc1nc(Nc2cccc(NC(=O)N3CCCC3)c2)ncc1I)c1cccs1 [BX 795] + Cc1cc(Nc2cc(N3CCN(C)CC3)nc(Sc3ccc(NC(=O)C4CC4)cc3)n2)n[nH]1 [Tozasertib] (partner 0.1 µM)
Method in brief: as §1

[6] = compound: O=C(NCCCNc1nc(Nc2cccc(NC(=O)N3CCCC3)c2)ncc1I)c1cccs1 [BX 795] + Cc1nc(Nc2ncc(C(=O)Nc3c(C)cccc3Cl)s2)cc(N2CCN(CCO)CC2)n1 [Dasatinib] (partner 0.075 µM)
Method in brief: as §1

[7] = compound: O=C(NCCCNc1nc(Nc2cccc(NC(=O)N3CCCC3)c2)ncc1I)c1cccs1 [BX 795] + COc1cccc2cc(-c3nc([C@H]4CC[C@H](C(=O)O)CC4)n4ncnc(N)c34)[nH]c12 [OSI-027] (partner 0.5 µM)
Method in brief: as §1

[8] = compound: O=C(NCCCNc1nc(Nc2cccc(NC(=O)N3CCCC3)c2)ncc1I)c1cccs1 [BX 795] + C[C@@H](Oc1cc(-c2cnn(C3CCNCC3)c2)cnc1N)c1c(Cl)ccc(F)c1Cl [Crizotinib] (partner 1 µM)
Method in brief: as §1

[9] = compound: O=C(NCCCNc1nc(Nc2cccc(NC(=O)N3CCCC3)c2)ncc1I)c1cccs1 [BX 795] + CC(C)C[C@H](NC(=O)[C@H](Cc1ccccc1)NC(=O)c1cnccn1)B(O)O [Bortezomib] (partner 0.002 µM)
Method in brief: as §1

[10] = compound: O=C(NCCCNc1nc(Nc2cccc(NC(=O)N3CCCC3)c2)ncc1I)c1cccs1 [BX 795] + C[C@]1(O)C[C@@H](c2nc(-c3ccc4ccc(-c5ccccc5)nc4c3)c3c(N)nccn32)C1 [Linsitinib] (partner 1 µM)
Method in brief: as §1

[11] = compound: O=C(NCCCNc1nc(Nc2cccc(NC(=O)N3CCCC3)c2)ncc1I)c1cccs1 [BX 795] + CC1(C)CCC(c2ccc(Cl)cc2)=C(CN2CCN(c3ccc(C(=O)NS(=O)(=O)c4ccc(N[C@H](CCN5CCOCC5)CSc5ccccc5)c(S(=O)(=O)C(F)(F)F)c4)cc3)CC2)C1 [Navitoclax] (partner 0.5 µM)
Method in brief: as §1

[12] = compound: O=C(NCCCNc1nc(Nc2cccc(NC(=O)N3CCCC3)c2)ncc1I)c1cccs1 [BX 795] + Cc1nc(NC(=O)N2CCC[C@H]2C(N)=O)sc1-c1ccnc(C(C)(C)C(F)(F)F)c1 [Alpelisib] (partner 2 µM)
Method in brief: as §1

[13] = compound: O=C(NCCCNc1nc(Nc2cccc(NC(=O)N3CCCC3)c2)ncc1I)c1cccs1 [BX 795] + CS(=O)(=O)N1CCN(Cc2cc3nc(-c4cccc5[nH]ncc45)nc(N4CCOCC4)c3s2)CC1 [Pictilisib] (partner 1 µM)
Method in brief: as §1

[14] = compound: O=C(NCCCNc1nc(Nc2cccc(NC(=O)N3CCCC3)c2)ncc1I)c1cccs1 [BX 795] + O=C(c1cc(Cc2n[nH]c(=O)c3ccccc23)ccc1F)N1CCN(C(=O)C2CC2)CC1 [Olaparib] (partner 8 µM)
Method in brief: as §1

[15] = compound: O=C(NCCCNc1nc(Nc2cccc(NC(=O)N3CCCC3)c2)ncc1I)c1cccs1 [BX 795] + CS(=O)(=O)CCNCc1ccc(-c2ccc3ncnc(Nc4ccc(OCc5cccc(F)c5)c(Cl)c4)c3c2)o1 [Lapatinib] (partner 2 µM)
Method in brief: as §1

In the case of NCI-H1623, the relative viability ([1]; 0.04 µM) is reported as 1.15, the relative viability ([1]; 0.1265 µM) is reported as 0.972 and the relative viability ([1]; 0.4 µM) is reported as 0.989. For the same cell line, the relative viability ([1]; 1.265 µM) was 0.892, the relative viability ([2]; first compound 0.04 µM) was 0.611 and the relative viability ([2]; first compound 0.1265 µM) was 0.568. The relative viability ([2]; first compound 0.4 µM) was 0.491, the relative viability ([2]; first compound 1.265 µM) was 0.516 and the relative viability ([3]; first compound 0.04 µM) was 0.913. The relative viability ([3]; first compound 0.1265 µM) was 0.952, the relative viability ([3]; first compound 0.4 µM) was 0.88 and the relative viability ([3]; first compound 1.265 µM) was 0.892. It also gave a relative viability ([4]; first compound 0.04 µM) of 0.598, a relative viability ([4]; first compound 0.1265 µM) of 0.511 and a relative viability ([4]; first compound 0.4 µM) of 0.5. It also gave a relative viability ([4]; first compound 1.265 µM) of 0.572, a relative viability ([5]; first compound 0.04 µM) of 0.429 and a relative viability ([5]; first compound 0.1265 µM) of 0.386. The relative viability ([5]; first compound 0.4 µM) was 0.392, the relative viability ([5]; first compound 1.265 µM) was 0.461 and the relative viability ([6]; first compound 0.04 µM) was 0.537. For the same cell line, the relative viability ([6]; first compound 0.1265 µM) was 0.572, the relative viability ([6]; first compound 0.4 µM) was 0.533 and the relative viability ([6]; first compound 1.265 µM) was 0.512. The relative viability ([7]; first compound 0.04 µM) was 0.458, the relative viability ([7]; first compound 0.1265 µM) was 0.421 and the relative viability ([7]; first compound 0.4 µM) was 0.402. For the same cell line, the relative viability ([7]; first compound 1.265 µM) was 0.466.
EBC-1 showed a relative viability ([1]; 0.04 µM) of 1.02, a relative viability ([1]; 0.1265 µM) of 1.01 and a relative viability ([1]; 0.4 µM) of 0.931. The relative viability ([1]; 1.265 µM) was 0.543, the relative viability ([8]; first compound 0.04 µM) was 0.199 and the relative viability ([8]; first compound 0.1265 µM) was 0.186. It also gave a relative viability ([8]; first compound 0.4 µM) of 0.184, a relative viability ([8]; first compound 1.265 µM) of 0.172 and a relative viability ([9]; first compound 0.04 µM) of 0.571. For the same cell line, the relative viability ([9]; first compound 0.1265 µM) was 0.458, the relative viability ([9]; first compound 0.4 µM) was 0.551 and the relative viability ([9]; first compound 1.265 µM) was 0.269. The relative viability ([3]; first compound 0.04 µM) was 0.104, the relative viability ([3]; first compound 0.1265 µM) was 0.0912 and the relative viability ([3]; first compound 0.4 µM) was 0.0982. It also gave a relative viability ([3]; first compound 1.265 µM) of 0.0866, a relative viability ([10]; first compound 0.04 µM) of 0.957 and a relative viability ([10]; first compound 0.1265 µM) of 0.864. The relative viability ([10]; first compound 0.4 µM) was 0.85, the relative viability ([10]; first compound 1.265 µM) was 0.439 and the relative viability ([11]; first compound 0.04 µM) was 0.508. For the same cell line, the relative viability ([11]; first compound 0.1265 µM) was 0.438, the relative viability ([11]; first compound 0.4 µM) was 0.401 and the relative viability ([11]; first compound 1.265 µM) was 0.222. The relative viability ([12]; first compound 0.04 µM) was 0.874, the relative viability ([12]; first compound 0.1265 µM) was 0.763 and the relative viability ([12]; first compound 0.4 µM) was 0.628. For the same cell line, the relative viability ([12]; first compound 1.265 µM) was 0.34, the relative viability ([13]; first compound 0.04 µM) was 0.419 and the relative viability ([13]; first compound 0.1265 µM) was 0.351. For the same cell line, the relative viability ([13]; first compound 0.4 µM) was 0.262, the relative viability ([13]; first compound 1.265 µM) was 0.157 and the relative viability ([14]; first compound 0.04 µM) was 0.794. It also gave a relative viability ([14]; first compound 0.1265 µM) of 0.707, a relative viability ([14]; first compound 0.4 µM) of 0.765 and a relative viability ([14]; first compound 1.265 µM) of 0.355. The relative viability ([15]; first compound 0.04 µM) was 0.217, the relative viability ([15]; first compound 0.1265 µM) was 0.189 and the relative viability ([15]; first compound 0.4 µM) was 0.231. For the same cell line, the relative viability ([15]; first compound 1.265 µM) was 0.188.
